Measurements from patent US4180564A, “A-38533 Antibiotics and process for production thereof” (Eli Lilly and Company, priority 1978, dated 1979).
In brackets after ≈: the same amount, converted by molar mass.

Key:
P. aeruginosa = experiment: In vivo antimicrobial activity, P. aeruginosa infection in mice; conditions: Pseudomonas aeruginosa, sc
Source text: The A-38533 antibiotics have shown in vivo antimicrobial activity against experimental bacterial infections. […] Bacteriol. 81, 233-235 (1961)]. The LD50 values in Table XI refer to the infecting challenge of the pathogen, the measure being the number by which the LD50 (ip) of the infecting organism is multiplied.

Pseudomonas aeruginosa = experiment: In vitro activity, standard agar-dilution test (MIC); assay type: cell-based
Source text: The A-38533 antibiotics inhibit the growth of certain gram-negative pathogenic organisms, particularly Pseudomonas species. The minimal inhibitory concentrations (MIC's) at which the A-38533 factors A1, A2, B and C inhibit various strains of Pseudomonas aeruginosa and Neisseria gonorrhea, as determined by standard agar-dilution tests, are summarized in Table X.

Row | SMILES | ED50 (P. aeruginosa; Test A, P. aeruginosa X239, SC, ×3 doses, challenge 76 × LD50 (ip)) | ED50 (P. aeruginosa; Test B, P. aeruginosa 24J, ×3 doses, challenge 7.6 × LD50 (ip)) | ED50 (P. aeruginosa; Test C, P. aeruginosa 24J, ×3 doses, challenge 21.5 × LD50 (ip)) | MIC (Pseudomonas aeruginosa; strain 4276) | MIC (Pseudomonas aeruginosa; strain PA103) | MIC (Pseudomonas aeruginosa; strain PI23) | MIC (Pseudomonas aeruginosa; strain PS9) | MIC (Pseudomonas aeruginosa; strain PS15) | MIC (Pseudomonas aeruginosa; strain PS25) | MIC (Pseudomonas aeruginosa; strain X48) | MIC (Pseudomonas aeruginosa; strain X239) | MIC (Pseudomonas aeruginosa; strain X528) | ED50 (P. aeruginosa; Test A, P. aeruginosa X239, SC, ×2 doses, challenge 76 × LD50 (ip)) | ED50 (P. aeruginosa; Test B, P. aeruginosa 24J, ×2 doses, challenge 7.6 × LD50 (ip)) | ED50 (P. aeruginosa; Test C, P. aeruginosa 24J, ×2 doses, challenge 21.5 × LD50 (ip))
1 | CC1(C)S[C@@H]2[C@H](NC(=O)C(C(=O)O)c3ccccc3)C(=O)N2[C@H]1C(=O)O (stereo partly drawn) [Carbenicillin] | 29.3 mg/kg | 31.9 mg/kg | 57.5 mg/kg | 128 mg/L (≈ 338 µM) | 32 mg/L (≈ 84.6 µM) | 32 mg/L (≈ 84.6 µM) | 32 mg/L (≈ 84.6 µM) | 16 mg/L (≈ 42.3 µM) | 64 mg/L (≈ 169 µM) | 16 mg/L (≈ 42.3 µM) | 32 mg/L (≈ 84.6 µM) | 16 mg/L (≈ 42.3 µM) |  |  | 
2 | NC[C@H]1O[C@H](O[C@H]2[C@H](O)[C@@H](O[C@H]3O[C@H](CO)[C@@H](O)[C@H](N)[C@H]3O)[C@H](N)C[C@@H]2N)[C@H](N)C[C@@H]1O [Tobramycin] |  |  |  |  |  |  |  |  |  |  |  |  | 0.4 mg/kg | 0.4 mg/kg | 0.6 mg/kg
